The source of these data is patent US20100311642A1, “USE OF V2 RECEPTOR ANTAGONISTS IN COMBINATION WITH VASO PRESSINERGIC AGNOSTS” (Ferring B.V., priority 2007, published 2010).

Entries after “also recorded” stand apart in the source; their conditions may differ. Positions of bridges follow the written chain, without caps; N, C: chain ends. Residues, ends and D or L forms follow the SMILES beside them.

One assay concerns sheep model of sepsis. Briefly: Sheep model of sepsis (smoke inhalation + Pseudomonas aeruginosa). Type of assay: in vivo. The settings on record: septic sheep, continuous i.v. infusion titrated, 24 hours. An excerpt:
A. Description of Model & Experimental Design • Septic shock is caused by hypotension secondary to vasodilation. […] The combination of a selective V2 receptor agonist, desmopressin, and a selective V1a receptor agonist models to some extent the non-selective V1a/V2 receptor agonist activity of vasopressin and other related compounds having non-selective activity.
Method: Sheep are surgically instrumented ahead of the study. After obtaining baseline data, they are anesthetized and insufflated with 48 breaths of cotton smoke and 10^11 colony forming units of Pseudomonas aeruginosa instilled into their airways via a tracheostomy. The sheep are then placed on a ventilator and awakened for the study. They are resuscitated with Ringer's solution to maintain left atrial and central venous pressures and hematocrit at baseline levels. If, despite fluid management, mean arterial pressure (MAP) falls by 10 mm Hg from baseline, a continuous intravenous infusion of AVP, the selective V1a receptor agonist, or the selective V1a receptor agonist+the selective V2 agonist desmopressin is initiated and titrated to keep MAP within this limit, except in a septic control group and in a non-septic sham group. Parameters measured include Mean Arterial Pressure (a measure of vasodilation/hypotension) and Fluid Balance (a measure of vascular leak).
Additional information about sepsis model and method available in Murakami K, Bjertnaes L T, Schmalstieg F C, McGuire R, Cox R A, Hawkins H K, Herndon D N, Traber L D, Traber D L (2002): A novel animal model of sepsis after acute lung injury in sheep. Crit. Care Med, 30:2083-2090.

Assay [1] deals with T1, rat V2 receptor (rV2R) (Rattus norvegicus, UniProt Q00788).
T1 construct: expressed in transfected cells; host or cells: HEK-293
As to the kind of experiment: Agonist transcriptional reporter gene assay, rat V2 receptor. Format: cell-based. The conditions noted are these: rV2, HEK-293 reporter gene. In general terms: Reporter assays use an easily measured gene product as a stand-in for the process of interest.

Assay [2] has as its target T2, human V1a receptor (hV1aR) (Homo sapiens, UniProt P37288).
T2 construct: expressed in transfected cells; host or cells: HEK-293
As to the kind of experiment: Agonist transcriptional reporter gene assay, human V1a receptor. Format: cell-based. The conditions noted are these: hV1a, HEK-293 reporter gene; for EC50: 5 hours.

Assay [3] concerns the target T3, human V2 receptor (hV2R) (Homo sapiens, UniProt P30518).
T3 construct: expressed in transfected cells; host or cells: HEK-293
As to the kind of experiment: Agonist transcriptional reporter gene assay, human V2 receptor. Type of assay: cell-based. The conditions noted are these: hV2, HEK-293 reporter gene; for EC50: 5 hours.

Assay [4] addresses T4, rat V1a receptor (rV1aR) (Rattus norvegicus, UniProt P30560).
T4 construct: expressed in transfected cells; host or cells: HEK-293
As to the kind of experiment: Agonist transcriptional reporter gene assay, rat V1a receptor. Format: cell-based. The conditions noted are these: rV1a, HEK-293 reporter gene.

In assay [5] the target is T4, rat V1a receptor (rV1aR). As to the kind of experiment: Antagonist transcriptional reporter gene assay, rat V1a receptor. The conditions noted are these: rV1a, HEK-293 reporter gene, vs AVP; for Ki: Ki calculated from IC50, read-out: Geomean Ki. Type of assay: cell-based. On the procedure:
(§1) Agonist activity of compounds on the human V1a receptor (hV1aR) and the rat V1a receptor (rV 1 aR) was determined in a transcriptional reporter gene assay in which HEK-293 cells were transiently co-transfected with either the human or rat V1a receptor, and a reporter DNA containing intracellular calcium responsive promoter elements regulating expression of firefly luciferase.
(§2) Antagonist activity of compounds on the human V1a receptor (hV1aR) and the rat V1a receptor (rV 1 aR) was determined in a transcriptional reporter gene assay as in section III.A; see Boss, V. et al. supra. […] Ki values were calculated from IC50 values.

Assay [6] concerns the target T1, rat V2 receptor (rV2R). As to the kind of experiment: Antagonist transcriptional reporter gene assay, rat V2 receptor. The conditions noted are these: rV2, HEK-293 reporter gene, vs AVP; for Ki: Ki calculated from IC50, read-out: Geomean Ki. Format: cell-based. The method, then:
(§3) Agonist activity of compounds on the human V2 receptor (hV2R) and the rat V2 receptor (rV2R) was determined in a transcriptional reporter gene assay in which HEK-293 cells were transiently transfected with either the human or rat V2 receptor, and a reporter DNA containing cyclic-AMP responsive promoter elements regulating expression of firefly luciferase. See Castarion, M. J., Spevak, W., Biochem Biophys Res Commun.1994 Jan.
(§4) Antagonist activity of compounds on the human V2 receptor (hV2R) and the rat V2 receptor (rV2R) was determined in a transcriptional reporter gene assay as in section III.A; see Castañón, M. J. et al. supra. […] Ki values were calculated from IC50 values.

Assay [7] addresses T3, human V2 receptor (hV2R). As to the kind of experiment: Antagonist transcriptional reporter gene assay, human V2 receptor. Type of assay: cell-based. The settings on record: hV2, HEK-293 reporter gene, vs AVP. On the procedure:
as §3, §4

Assay [8] concerns the target T2, human V1a receptor (hV1aR). As to the kind of experiment: Antagonist transcriptional reporter gene assay, human V1a receptor. Format: cell-based. The settings on record: hV1a, HEK-293 reporter gene, vs AVP. On the procedure:
as §1, §2

For assay [9], the system named is venular microvessels in rat mesentery. Briefly: Rat mesenteric post-capillary venule permeability (hydraulic conductivity Lp, PAF). The settings on record: PAF 10 nM. On the procedure: We tested the hypothesis that the selective V2 receptor agonist desmopressin would potentiate the increase in microvessel permeability induced by platelet activating factor [PAF], an inflammatory mediator involved in sepsis.
Method: Individual venular microvessels in rat mesentery were cannulated and perfused with mammalian Ringer containing 10 mg/ml albumin to measure hydraulic conductivity (Lp) by the modified Landis technique. The vessels were then exposed to PAF (10 nM) with monitoring of hydraulic conductivity (Lp). The same vessels are then exposed to a selective V2 receptor agonist, desmopressin, followed by a second exposure to PAF with monitoring of hydraulic conductivity (Lp).
Additional information about microvascular permeability model and method available in Curry, FE, “The Measurement of Hydraulic Conductivity”, Microcirculatory Technology, Academic Press, 1986, pp 429-446.

Where [10] appears, read: Ki calculated from IC50, read-out: Geomean Ki.

T4 sequence (P30560 whole entry): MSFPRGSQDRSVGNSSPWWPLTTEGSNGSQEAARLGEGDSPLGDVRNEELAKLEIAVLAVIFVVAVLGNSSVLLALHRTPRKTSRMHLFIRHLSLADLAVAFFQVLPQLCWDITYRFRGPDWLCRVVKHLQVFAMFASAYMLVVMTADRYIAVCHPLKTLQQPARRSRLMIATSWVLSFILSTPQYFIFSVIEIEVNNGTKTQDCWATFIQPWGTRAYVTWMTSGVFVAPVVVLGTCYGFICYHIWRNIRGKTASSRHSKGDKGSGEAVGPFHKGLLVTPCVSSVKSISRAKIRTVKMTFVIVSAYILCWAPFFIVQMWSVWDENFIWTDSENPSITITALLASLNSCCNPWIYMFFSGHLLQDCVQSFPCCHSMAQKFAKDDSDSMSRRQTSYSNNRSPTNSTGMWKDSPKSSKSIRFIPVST
T1 sequence (Q00788 whole entry): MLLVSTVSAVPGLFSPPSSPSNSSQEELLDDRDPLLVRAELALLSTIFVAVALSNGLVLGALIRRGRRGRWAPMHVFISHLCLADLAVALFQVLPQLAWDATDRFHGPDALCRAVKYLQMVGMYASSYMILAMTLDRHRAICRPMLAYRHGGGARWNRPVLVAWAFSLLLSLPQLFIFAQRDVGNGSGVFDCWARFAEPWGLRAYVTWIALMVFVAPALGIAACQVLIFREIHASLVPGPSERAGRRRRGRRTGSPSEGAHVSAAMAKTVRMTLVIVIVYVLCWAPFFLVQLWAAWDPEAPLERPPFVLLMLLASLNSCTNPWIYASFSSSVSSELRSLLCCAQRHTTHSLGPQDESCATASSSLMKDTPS
T3 sequence (P30518 whole entry): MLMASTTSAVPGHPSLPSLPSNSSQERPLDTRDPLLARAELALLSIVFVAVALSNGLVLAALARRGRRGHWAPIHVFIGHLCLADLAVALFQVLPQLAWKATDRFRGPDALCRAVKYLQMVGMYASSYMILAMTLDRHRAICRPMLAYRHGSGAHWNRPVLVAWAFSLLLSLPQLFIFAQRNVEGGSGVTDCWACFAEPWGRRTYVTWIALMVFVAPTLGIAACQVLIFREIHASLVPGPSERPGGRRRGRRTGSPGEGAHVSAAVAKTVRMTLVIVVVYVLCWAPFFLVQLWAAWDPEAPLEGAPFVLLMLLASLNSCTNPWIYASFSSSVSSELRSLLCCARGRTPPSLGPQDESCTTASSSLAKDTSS
T2 sequence (P37288 whole entry): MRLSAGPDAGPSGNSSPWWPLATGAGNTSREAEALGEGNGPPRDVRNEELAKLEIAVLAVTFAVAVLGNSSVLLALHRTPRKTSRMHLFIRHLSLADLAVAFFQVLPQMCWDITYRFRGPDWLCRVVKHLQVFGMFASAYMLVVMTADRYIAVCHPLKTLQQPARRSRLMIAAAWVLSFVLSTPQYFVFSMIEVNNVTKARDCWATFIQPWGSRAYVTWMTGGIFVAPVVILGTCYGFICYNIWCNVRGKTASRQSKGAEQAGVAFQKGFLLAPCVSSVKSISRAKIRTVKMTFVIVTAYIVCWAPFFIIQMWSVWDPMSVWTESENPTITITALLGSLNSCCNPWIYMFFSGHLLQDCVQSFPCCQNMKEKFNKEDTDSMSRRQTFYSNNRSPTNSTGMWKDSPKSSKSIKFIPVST

`NC(=O)CC[C@@H]1NC(=O)[C@H](Cc2ccccc2)NC(=O)[C@H](Cc2ccc(O)cc2)NC(=O)[C@@H](N)CSSC[C@@H](C(=O)N2CCC[C@H]2C(=O)N[C@@H](CCCN=C(N)N)C(=O)NCC(N)=O)NC(=O)[C@H](CC(N)=O)NC1=O` [Arginine vasopressin, AVP, arginine vasopressin]: in the assay on sheep model of sepsis, the “Fluid retention / vascular leak (fluid balance)” value is on record as “showed symptoms of vascular leak syndrome; also recorded: less effective” and the “Mean arterial pressure (MAP)” value is “efficacious in maintaining mean arterial pressure; also recorded: less effective”. Also, on rat V2 receptor (rV2R) [1], the Efficacy worked out at 100%.
As usually defined, the EC50 is the concentration at which the effect is half-maximal. In the case of `NCCCC[C@H](NC(=O)[C@@H]1CCCN1C(=O)[C@@H]1CSSC[C@H](NC(=O)CNC(=O)CNC(=O)CN)C(=O)N[C@@H](Cc2ccc(O)cc2)C(=O)N[C@@H](Cc2ccccc2)C(=O)N[C@@H](CCC(N)=O)C(=O)N[C@@H](CC(N)=O)C(=O)N1)C(=O)NCC(N)=O` [H-Gly3-LVP, terlipressin, terlipressin] (H-GGGCYFQNCPKG-NH2; disulfide 4-9), in assay [2], the Efficacy is 66% and a half-maximal effect (EC50) was put at 124 nM. On human V2 receptor (hV2R) [3], the Efficacy came out at 79% and the EC50 came to 121 nM.
As to `NCCCC[C@H](NC(=O)[C@@H]1CCCN1C(=O)[C@@H]1CSSC[C@H](N)C(=O)N[C@@H](Cc2ccc(O)cc2)C(=O)N[C@@H](Cc2ccccc2)C(=O)N[C@@H](CCC(N)=O)C(=O)N[C@@H](CC(N)=O)C(=O)N1)C(=O)NCC(N)=O` [Lysine Vasopressin, LVP, lysine vasopressin], the Efficacy at rat V2 receptor (rV2R) [1] is reported as 99%; at rat V1a receptor (rV1aR) [4] it was 99%; in [2] it was 98%; at human V2 receptor (hV2R) [3], 92%. Moreover, the EC50 is 1.11 nM at rat V2 receptor (rV2R) [1] (5 hours), 0.2 nM on rat V1a receptor (rV1aR) [4] (5 hours), 0.94 nM in [2] and 0.28 nM at human V2 receptor (hV2R) [3].
In the case of `Cc1nc2c([nH]1)-c1ccccc1N(C(=O)c1ccc(NC(=O)c3ccccc3-c3ccccc3)cc1)CC2` [conivaptan], the “Efficacy Antag” value on rat V1a receptor (rV1aR) [5] was found to be 99%; at rat V2 receptor (rV2R) [6], 97%; at human V2 receptor (hV2R) [7] it was 92%; in [8] it was 81%.
Regarding `NC(=O)CC[C@@H]1NC(=O)[C@H](Cc2ccccc2)NC(=O)[C@H](Cc2ccc(O)cc2)NC(=O)CCSSC[C@@H](C(=O)N2CCC[C@H]2C(=O)N[C@H](CCCN=C(N)N)C(=O)NCC(N)=O)NC(=O)[C@H](CC(N)=O)NC1=O` [desmopressin], the “Fluid retention / vascular leak (fluid balance)” value in the assay on sheep model of sepsis is listed as “decreased the effectiveness of the V1a agonist to the level of AVP”. Besides, in the assay with sheep model of sepsis, the “Mean arterial pressure (MAP)” value was “decreased the effectiveness of the V1a agonist to the level of AVP”. Moreover, the “peak Lp with PAF in presence of desmopressin relative to peak Lp with PAF alone” value is “not increased” in [9] (desmopressin 10 pM for 40 minutes); 2.1 fold in [9] (desmopressin 30 pM for 40 minutes, ±0.4 SEM, n=8); 2.8 fold in assay [9] (desmopressin 100 pM for 40 minutes, ±0.9 SEM, n=5).
Consider `Cc1ccccc1C(=O)Nc1ccc(C(=O)N2CCCC(N(C)C)c3ccccc32)cc1` (stereo not drawn) [mozavaptan], for which the “Efficacy Antag” value at rat V1a receptor (rV1aR) [5] was found to be 40%; on rat V2 receptor (rV2R) [6], 85%; on human V2 receptor (hV2R) [7], 107%; in [8], 85%.
What is called Ki is the equilibrium dissociation constant of an inhibitor or competing ligand from its target. In the case of `CCOc1ccc2c(c1)C1(CCC(OCCN3CCOCC3)CC1)C(=O)N2S(=O)(=O)c1ccc(C(=O)NC(C)(C)C)cc1OC` (stereo not drawn) [satavaptan], the “Efficacy Antag” value on rat V1a receptor (rV1aR) [5] turned out to be 6%; at rat V2 receptor (rV2R) [6] it was 100%; on human V2 receptor (hV2R) [7], 109%; in assay [8], 10%. The Ki is above 338 nM on rat V1a receptor (rV1aR) [5], 0.6 nM at rat V2 receptor (rV2R) [6], 1.5 nM on human V2 receptor (hV2R) [7] (setting [10]) and above 950 nM in [8] (setting [10]).
Take `Cc1ccccc1C(=O)Nc1ccc(C(=O)N2CCCC(O)c3cc(Cl)ccc32)c(C)c1` (stereo not drawn) [tolvaptan]: the “Efficacy Antag” value is reported as 26% on rat V1a receptor (rV1aR) [5], 102% at rat V2 receptor (rV2R) [6], 97% on human V2 receptor (hV2R) [7] and 101% in assay [8]. For the same molecule, the Ki at rat V1a receptor (rV1aR) [5] is above 338 nM; at rat V2 receptor (rV2R) [6], 3.3 nM.
For the molecule “[Pmp1,D-Ile2,Ile4,Arg8]vasopressin [[Pmp1, D-Ile2, Ile4]AVP]”, the “Efficacy Antag” value at rat V2 receptor (rV2R) [6] is listed as 97%.
Same read-out and setting: under “[Pmp1,D-Ile2,Ile4,Arg8]vasopressin-(1-8)-OH [[Pmp1, D-Ile2, Ile4]AVP-(1-8)-OH]” stands 105%.
In the case of “ornithine vasopressin [[Orn8] Vasopressin, OVP]”, the Efficacy on rat V2 receptor (rV2R) [1] was determined as 111%.
